In patent US20260250318A1, “COMPOSITIONS AND METHODS FOR CROSSING THE BLOOD BRAIN BARRIER” (VOYAGER THERAPEUTICS, INC., priority 2022, published 2026):

Key:
[1] = system: brains, heart, liver, muscle, and DRG of the NHPs; experiment: Maturation of TTM-001 and TTM-002 capsids, NGS enrichment in NHP tissues; type: in vivo; settings: relative to AAV9 control
Method in brief: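 Variants carry mutations within and flanking the loop IV peptide insert: positions 450–466 were triplet-randomized, while positions 449–466 received low-frequency point mutations. The combined pool went into two NHPs, and each peptide was scored by NGS enrichment ratio against AAV9.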

brain = experiment: Matured TTM-001 and TTM-002 variants, NGS enrichment in mouse brain; type: in vivo, mice; settings: relative to AAV9 control
[2] = NGS fold-enrichment, DRG of NHPs
[3] = NGS fold-enrichment, RNA, brain of NHPs
[4] = NGS fold-enrichment, heart of NHPs
[5] = NGS fold-enrichment, liver DNA of NHPs
[6] = NGS fold-enrichment, liver RNA of NHPs
[7] = NGS fold-enrichment, muscle of NHPs
[8] = NGS fold-enrichment, brain of mice
[9] = NGS fold-enrichment of RNA, NHP brain
[10] = NGS fold-enrichment, NHP liver DNA
[11] = NGS fold-enrichment, NHP liver RNA
[12] = NGS fold-enrichment, NHP muscle
[13] = NGS fold-enrichment, mouse brain
[14] = NGS fold-enrichment of matured AAV capsid variants, NHP brain, RNA

Row | Sequence | Fold Enrichment relative to AAV9, DRG (NHP) [1, 2] | Fold Enrichment relative to AAV9, Brain (NHP) [1, 3] | Fold Enrichment relative to AAV9, Heart (NHP) [1, 4] | Fold Enrichment relative to AAV9, Liver DNA (NHP) [1, 5] | Fold Enrichment relative to AAV9, Liver RNA (NHP) [1, 6] | Fold Enrichment relative to AAV9, Muscle (NHP) [1, 7] | Fold Enrichment relative to AAV9, Brain (Mouse) (brain; [8]) | Fold Enrichment relative to AAV9, Brain (NHP) [1, 9] | Fold Enrichment relative to AAV9, DRG (NHP) ([1]; NGS fold-enrichment, NHP DRG) | Fold Enrichment relative to AAV9, Heart (NHP) ([1]; NGS fold-enrichment, NHP heart) | Fold Enrichment relative to AAV9, Liver DNA (NHP) [1, 10] | Fold Enrichment relative to AAV9, Liver RNA (NHP) [1, 11] | Fold Enrichment relative to AAV9, Muscle (NHP) [1, 12] | Fold Enrichment relative to AAV9, Brain (Mouse) (brain; [13]) | also measured
1 | KTISGGGSPHSKAQNQQN | 0.000 fold | 59.801 fold | 0.000 fold | 0.039 fold | 0.722 fold | 0.000 fold | 87.761 fold |  |  |  |  |  |  |  | 
2 | KTISGHDSPHKTGHNQQT |  |  |  |  |  |  |  | 92.490 fold | 0.000 fold | 0.233 fold | 0.000 fold | 0.730 fold | 0.057 fold | 8.823 fold | 
3 | KTISGSGSPHSKAQYQHT | 0.000 fold | 66.739 fold | 0.000 fold | 0.191 fold | 0.000 fold | 0.000 fold | 59.822 fold |  |  |  |  |  |  |  | 
4 | KTITGHDSPHKSGQHLQT |  |  |  |  |  |  |  | 137.945 fold | 0.000 fold | 0.072 fold | 0.000 fold | 0.000 fold | 0.000 fold | 4.187 fold | 
5 | KTITGHDSPHKSGQNQWT |  |  |  |  |  |  |  | 81.658 fold | 0.000 fold | 0.090 fold | 0.000 fold | 0.936 fold | 0.000 fold | 7.744 fold | 
6 | KTITGSGSPHSKAQTQLT | 0.160 fold | 60.846 fold | 8.992 fold | 0.000 fold | 0.000 fold | 0.000 fold | 55.640 fold |  |  |  |  |  |  |  | 
7 | KTIYGHDSPHKSVQNQLT |  |  |  |  |  |  |  | 92.381 fold | 0.000 fold | 0.043 fold | 0.016 fold | 0.103 fold | 0.000 fold | 12.323 fold | 
8 | KTLNGNGSPHSKAQNLQT |  |  |  |  |  |  |  |  |  |  |  |  |  |  | Fold Enrichment relative to AAV9, Brain (NHP) [1, 14]: 54.458 fold; Fold Enrichment relative to AAV9, DRG (NHP) ([1]; NHP DRG): 0.668 fold; Fold Enrichment relative to AAV9, Heart (NHP) ([1]; NHP heart): 0.000 fold; Fold Enrichment relative to AAV9, Liver DNA (NHP) ([1]; NHP liver, DNA): 0.172 fold; Fold Enrichment relative to AAV9, Liver RNA (NHP) ([1]; NHP liver, RNA): 0.161 fold; Fold Enrichment relative to AAV9, Muscle (NHP) ([1]; NHP muscle): 0.000 fold; Fold Enrichment relative to AAV9, Brain (Mouse) (brain; mouse brain): 159.134 fold
9 | KTNNGGGSPHSKAQNLQT |  |  |  |  |  |  |  |  |  |  |  |  |  |  | Fold Enrichment relative to AAV9, Brain (NHP) [1, 14]: 54.963 fold; Fold Enrichment relative to AAV9, DRG (NHP) ([1]; NHP DRG): 0.000 fold; Fold Enrichment relative to AAV9, Heart (NHP) ([1]; NHP heart): 0.000 fold; Fold Enrichment relative to AAV9, Liver DNA (NHP) ([1]; NHP liver, DNA): 0.089 fold; Fold Enrichment relative to AAV9, Liver RNA (NHP) ([1]; NHP liver, RNA): 0.000 fold; Fold Enrichment relative to AAV9, Muscle (NHP) ([1]; NHP muscle): 0.000 fold; Fold Enrichment relative to AAV9, Brain (Mouse) (brain; mouse brain): 80.506 fold
10 | KTNNGHDSPHKSVQNQHT |  |  |  |  |  |  |  | 115.172 fold | 0.000 fold | 0.083 fold | 0.062 fold | 0.000 fold | 0.000 fold | 7.934 fold | 
11 | KTNNGSGSPHSKAQNQQY | 0.000 fold | 68.530 fold | 0.040 fold | 0.059 fold | 0.000 fold | 0.000 fold | 82.656 fold |  |  |  |  |  |  |  | 
12 | KTRDASGSPHSKAQNQQT |  |  |  |  |  |  |  |  |  |  |  |  |  |  | Fold Enrichment relative to AAV9, Brain (NHP) [1, 14]: 52.861 fold; Fold Enrichment relative to AAV9, DRG (NHP) ([1]; NHP DRG): 0.000 fold; Fold Enrichment relative to AAV9, Heart (NHP) ([1]; NHP heart): 0.000 fold; Fold Enrichment relative to AAV9, Liver DNA (NHP) ([1]; NHP liver, DNA): 0.402 fold; Fold Enrichment relative to AAV9, Liver RNA (NHP) ([1]; NHP liver, RNA): 1.062 fold; Fold Enrichment relative to AAV9, Muscle (NHP) ([1]; NHP muscle): 0.010 fold; Fold Enrichment relative to AAV9, Brain (Mouse) (brain; mouse brain): 52.089 fold
13 | KTREISGSPHSKAQNQQT |  |  |  |  |  |  |  |  |  |  |  |  |  |  | Fold Enrichment relative to AAV9, Brain (NHP) [1, 14]: 59.027 fold; Fold Enrichment relative to AAV9, DRG (NHP) ([1]; NHP DRG): 0.000 fold; Fold Enrichment relative to AAV9, Heart (NHP) ([1]; NHP heart): 0.042 fold; Fold Enrichment relative to AAV9, Liver DNA (NHP) ([1]; NHP liver, DNA): 0.269 fold; Fold Enrichment relative to AAV9, Liver RNA (NHP) ([1]; NHP liver, RNA): 0.356 fold; Fold Enrichment relative to AAV9, Muscle (NHP) ([1]; NHP muscle): 0.224 fold; Fold Enrichment relative to AAV9, Brain (Mouse) (brain; mouse brain): 51.696 fold
14 | KTSNASGSPHSKAHNQQT | 0.000 fold | 59.607 fold | 0.078 fold | 0.050 fold | 0.031 fold | 0.067 fold | 67.967 fold |  |  |  |  |  |  |  | 
15 | KTSNASGSPHSKAQHQQT |  |  |  |  |  |  |  | 165.206 fold | 0.000 fold | 0.000 fold | 0.082 fold | 0.000 fold | 0.000 fold | 40.558 fold | 
16 | KTSNASGSPHSKAQNQLT | 0.000 fold | 73.501 fold | 0.000 fold | 0.313 fold | 0.000 fold | 0.297 fold | 150.401 fold |  |  |  |  |  |  |  | 
17 | KTSNESGSPHSKAQNHQT | 0.000 fold | 75.720 fold | 0.000 fold | 0.217 fold | 0.169 fold | 0.000 fold | 70.590 fold | 75.720 fold | 0.000 fold | 0.000 fold | 0.217 fold | 0.169 fold | 0.000 fold | 70.590 fold | 
18 | KTSNGGGSPHSKAQNLQT | 0.000 fold | 68.311 fold | 0.052 fold | 0.000 fold | 0.000 fold | 0.000 fold | 124.871 fold |  |  |  |  |  |  |  | 
19 | KTSNGHDSPHKSGQNQPA |  |  |  |  |  |  |  | 75.834 fold | 0.000 fold | 0.056 fold | 0.000 fold | 0.000 fold | 0.000 fold | 8.501 fold | 
20 | KTSNGSGSPHSKAHYQQT |  |  |  |  |  |  |  |  |  |  |  |  |  |  | Fold Enrichment relative to AAV9, Brain (NHP) [1, 14]: 54.414 fold; Fold Enrichment relative to AAV9, DRG (NHP) ([1]; NHP DRG): 0.000 fold; Fold Enrichment relative to AAV9, Heart (NHP) ([1]; NHP heart): 0.251 fold; Fold Enrichment relative to AAV9, Liver DNA (NHP) ([1]; NHP liver, DNA): 0.204 fold; Fold Enrichment relative to AAV9, Liver RNA (NHP) ([1]; NHP liver, RNA): 0.249 fold; Fold Enrichment relative to AAV9, Muscle (NHP) ([1]; NHP muscle): 0.000 fold; Fold Enrichment relative to AAV9, Brain (Mouse) (brain; mouse brain): 54.162 fold
21 | KTSNGSGSPHSKAQNLQI |  |  |  |  |  |  |  |  |  |  |  |  |  |  | Fold Enrichment relative to AAV9, Brain (NHP) [1, 14]: 52.843 fold; Fold Enrichment relative to AAV9, DRG (NHP) ([1]; NHP DRG): 0.000 fold; Fold Enrichment relative to AAV9, Heart (NHP) ([1]; NHP heart): 0.000 fold; Fold Enrichment relative to AAV9, Liver DNA (NHP) ([1]; NHP liver, DNA): 0.214 fold; Fold Enrichment relative to AAV9, Liver RNA (NHP) ([1]; NHP liver, RNA): 0.178 fold; Fold Enrichment relative to AAV9, Muscle (NHP) ([1]; NHP muscle): 1.605 fold; Fold Enrichment relative to AAV9, Brain (Mouse) (brain; mouse brain): 74.823 fold
22 | KTSNGSGSPHSKAQNPPT | 0.000 fold | 91.528 fold | 0.000 fold | 0.039 fold | 0.000 fold | 0.000 fold | 51.541 fold | 91.528 fold | 0.000 fold | 0.000 fold | 0.039 fold | 0.000 fold | 0.000 fold | 51.541 fold | 
